Experiment [1] concerns the target T1, COX-2 (Homo sapiens, UniProt P35354).
T1 sequence (P35354 18-604): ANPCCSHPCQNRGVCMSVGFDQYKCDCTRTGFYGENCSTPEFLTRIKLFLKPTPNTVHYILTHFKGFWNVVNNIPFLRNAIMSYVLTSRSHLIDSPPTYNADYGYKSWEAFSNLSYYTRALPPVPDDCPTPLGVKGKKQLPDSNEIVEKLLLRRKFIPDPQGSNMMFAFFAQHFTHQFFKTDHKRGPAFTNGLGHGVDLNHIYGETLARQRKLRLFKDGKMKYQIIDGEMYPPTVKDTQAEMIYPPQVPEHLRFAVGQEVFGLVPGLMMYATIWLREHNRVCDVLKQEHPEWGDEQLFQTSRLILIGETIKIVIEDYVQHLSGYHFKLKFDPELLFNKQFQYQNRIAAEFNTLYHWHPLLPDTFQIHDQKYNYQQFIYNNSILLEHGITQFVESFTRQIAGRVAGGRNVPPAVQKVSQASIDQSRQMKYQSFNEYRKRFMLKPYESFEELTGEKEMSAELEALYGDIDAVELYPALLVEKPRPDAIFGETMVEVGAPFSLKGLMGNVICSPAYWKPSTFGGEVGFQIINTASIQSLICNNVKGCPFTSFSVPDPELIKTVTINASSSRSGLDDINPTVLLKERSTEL
As to conditions: specificity for COX-2 over COX-1, background statement; cited from earlier work.

Experiment [2] concerns the target T2, COX-1 enzyme (ovine) (Ovis aries, UniProt P05979).
T2 construct: purchased Cayman Chemical 60100
T2 sequence (P05979 25-600): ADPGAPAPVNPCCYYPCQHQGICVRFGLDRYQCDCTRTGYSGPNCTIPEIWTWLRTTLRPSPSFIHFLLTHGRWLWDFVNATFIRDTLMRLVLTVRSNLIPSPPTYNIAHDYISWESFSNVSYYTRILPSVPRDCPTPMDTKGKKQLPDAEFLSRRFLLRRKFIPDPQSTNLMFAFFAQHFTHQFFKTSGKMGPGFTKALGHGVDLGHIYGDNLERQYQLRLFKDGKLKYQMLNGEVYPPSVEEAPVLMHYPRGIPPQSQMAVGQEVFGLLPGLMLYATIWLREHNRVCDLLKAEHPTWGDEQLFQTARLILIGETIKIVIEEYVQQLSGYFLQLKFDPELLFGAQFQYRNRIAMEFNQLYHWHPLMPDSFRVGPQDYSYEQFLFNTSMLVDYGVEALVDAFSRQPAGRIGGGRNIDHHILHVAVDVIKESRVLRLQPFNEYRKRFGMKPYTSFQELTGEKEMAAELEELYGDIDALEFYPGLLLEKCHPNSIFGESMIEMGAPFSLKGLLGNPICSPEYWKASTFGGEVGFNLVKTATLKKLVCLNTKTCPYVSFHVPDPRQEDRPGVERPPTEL
Put plainly: COX-1 enzyme inhibition (COX-1 synthesis of PGE2). The experiment is classed as biochemical. The method, then: Determination of COX-1 Enzyme Inhibition by Hops Extract—The ability of a test material to inhibit COX-1 synthesis of PGE2 was determined essentially as described by Noreen, Y., et al. (J. Nat. Prod. 61, 2-7, 1998). […]

These results are taken from patent US20090274778A1 (priority 2004, published 2009).

pIC50: −log10 of the molar value.

For orientation: pIC50 means the IC50 on a negative log10 scale, so that one unit is a factor of ten.

For the molecule `CC(=O)Oc1ccccc1C(=O)O` [aspirin], the “reported COX-2 specificity” value in experiment [1] is recorded as 0.6.

Take `COc1cc(/C=C/C(=O)CC(=O)/C=C/c2ccc(O)c(OC)c2)ccc1O` [curcumin]: the negative logarithm of the IC50 (pIC50) in experiment [2] was 4.57.
